Assay results from ChEMBL document CHEMBL1201862, “PubChem BioAssay data set” (2004).
Calls of active or inactive are those of the source.

Columns and labels:
[1] = target: T1, Carboxy-terminal domain RNA polymerase II polypeptide A small phosphatase 1 (Homo sapiens, UniProt Q9GZU7); assay: inhibitors of CTDSP1, concentration-response testing, biochemical assay, absorbance-based, actives from ultra-high-throughput screening (AID 540297); format: functional
T1 sequence (Q9GZU7 whole entry): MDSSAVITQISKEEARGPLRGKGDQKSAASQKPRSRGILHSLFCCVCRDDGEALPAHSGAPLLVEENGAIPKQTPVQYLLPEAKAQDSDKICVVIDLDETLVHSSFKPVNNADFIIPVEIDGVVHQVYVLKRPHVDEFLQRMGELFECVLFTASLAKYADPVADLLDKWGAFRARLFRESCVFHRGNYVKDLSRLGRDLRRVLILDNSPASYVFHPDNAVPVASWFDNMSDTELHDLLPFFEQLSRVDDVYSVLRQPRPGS

[2] = target: T2, Zinc finger protein mex-5 (Caenorhabditis elegans, UniProt Q9XUB2); assay: MEX-5/TCR-2 RNA interaction inhibitors, dose response, biochemical, C. elegans, fluorescence polarization (AID 1960)
T2 sequence (Q9XUB2 whole entry): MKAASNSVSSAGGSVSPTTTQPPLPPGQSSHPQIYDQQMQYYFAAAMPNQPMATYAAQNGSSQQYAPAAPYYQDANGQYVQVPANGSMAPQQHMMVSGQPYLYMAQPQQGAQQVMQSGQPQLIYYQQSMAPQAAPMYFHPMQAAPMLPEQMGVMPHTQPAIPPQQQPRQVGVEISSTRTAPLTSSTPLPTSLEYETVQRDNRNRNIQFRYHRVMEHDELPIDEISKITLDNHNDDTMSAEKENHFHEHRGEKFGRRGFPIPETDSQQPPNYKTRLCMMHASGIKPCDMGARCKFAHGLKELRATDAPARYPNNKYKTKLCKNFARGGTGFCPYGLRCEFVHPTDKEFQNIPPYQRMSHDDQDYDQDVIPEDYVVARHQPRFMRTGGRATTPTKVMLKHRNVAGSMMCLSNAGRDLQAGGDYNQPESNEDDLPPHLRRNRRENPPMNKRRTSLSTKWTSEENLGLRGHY

[3] = target: T3, RNA-binding protein pos-1 (Caenorhabditis elegans, UniProt G5EF15); assay: inhibitors of POS-1/mex-3 RNA binding, dose response, biochemical, fluorescence polarization (AID 1964);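 also: purified POS-1 fused to maltose binding protein made in E. coli; potency of compounds blocking POS-1 binding to fluorescent RNA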
T3 sequence (G5EF15 whole entry): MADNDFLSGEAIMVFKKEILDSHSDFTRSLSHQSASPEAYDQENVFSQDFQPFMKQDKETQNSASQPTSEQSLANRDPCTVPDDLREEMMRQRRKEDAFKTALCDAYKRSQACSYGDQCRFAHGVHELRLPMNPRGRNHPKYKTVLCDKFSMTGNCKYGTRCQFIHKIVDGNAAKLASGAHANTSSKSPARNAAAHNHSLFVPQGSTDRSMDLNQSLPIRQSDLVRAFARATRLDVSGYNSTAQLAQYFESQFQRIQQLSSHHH

Large T antigen = Large T antigen (Simian virus 40, UniProt P03070); format: functional, Betapolyomavirus macacae;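 also: Confirmatory-stage PubChem screen for compounds that inhibit SV40 T antigen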
[4] = target: T4, DNA repair protein RAD52 homolog (Homo sapiens, UniProt P43351); format: functional, biochemical
T4 sequence (P43351 whole entry): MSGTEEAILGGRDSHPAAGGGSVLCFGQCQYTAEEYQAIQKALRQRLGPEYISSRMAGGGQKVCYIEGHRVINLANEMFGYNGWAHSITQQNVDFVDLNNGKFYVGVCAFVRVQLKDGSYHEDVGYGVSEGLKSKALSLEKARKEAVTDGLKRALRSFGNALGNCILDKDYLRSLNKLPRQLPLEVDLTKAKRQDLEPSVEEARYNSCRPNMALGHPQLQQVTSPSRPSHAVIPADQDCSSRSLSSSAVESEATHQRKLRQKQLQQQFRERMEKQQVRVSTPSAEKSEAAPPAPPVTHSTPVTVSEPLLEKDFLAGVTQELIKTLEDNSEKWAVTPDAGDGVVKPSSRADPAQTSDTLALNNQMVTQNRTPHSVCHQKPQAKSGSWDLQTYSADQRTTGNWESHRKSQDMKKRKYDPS

Leucine aminopeptidase = target: T5, Leucine aminopeptidase (Plasmodium falciparum 3D7, UniProt Q8IL11); assay: P. falciparum M17LAP inhibitors, primary screen, biochemical, fluorogenic H-Leu-NHMec substrate, 1536-well (AID 1619); format: functional
T5 sequence (Q8IL11 whole entry): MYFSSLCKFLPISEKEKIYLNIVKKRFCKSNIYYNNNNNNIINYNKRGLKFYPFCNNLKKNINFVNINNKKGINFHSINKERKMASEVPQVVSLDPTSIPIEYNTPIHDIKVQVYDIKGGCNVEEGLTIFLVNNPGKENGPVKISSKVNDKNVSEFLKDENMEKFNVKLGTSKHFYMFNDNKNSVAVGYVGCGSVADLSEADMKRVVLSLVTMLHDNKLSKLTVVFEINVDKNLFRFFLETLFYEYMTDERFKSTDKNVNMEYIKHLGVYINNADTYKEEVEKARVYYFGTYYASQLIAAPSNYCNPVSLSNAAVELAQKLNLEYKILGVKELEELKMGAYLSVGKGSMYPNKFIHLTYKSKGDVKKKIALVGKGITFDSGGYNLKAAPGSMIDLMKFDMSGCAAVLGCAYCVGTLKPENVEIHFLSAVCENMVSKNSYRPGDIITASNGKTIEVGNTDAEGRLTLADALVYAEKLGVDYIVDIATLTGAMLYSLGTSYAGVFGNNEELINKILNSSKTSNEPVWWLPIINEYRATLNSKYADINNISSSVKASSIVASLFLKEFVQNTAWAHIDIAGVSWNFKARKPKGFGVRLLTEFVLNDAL

[5] = target: T6, Ubiquitin-conjugating enzyme E2 N (Homo sapiens, UniProt P61088); format: functional;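 also: Dose-response confirmation in a TR-FRET assay detecting UBC13-driven polyubiquitin chain formation, inhibition measured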
T6 sequence (P61088 whole entry): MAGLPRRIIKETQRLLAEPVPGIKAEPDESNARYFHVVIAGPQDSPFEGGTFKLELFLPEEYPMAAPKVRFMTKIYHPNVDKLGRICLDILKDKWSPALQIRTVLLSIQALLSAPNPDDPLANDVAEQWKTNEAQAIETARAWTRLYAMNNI

Protein RecA = target: T7, Protein RecA (Mycobacterium tuberculosis, UniProt P9WHJ3); assay: Fluorescence Cell-Free Homogeneous Dose Retest to Identify Inhibitors of RecA-Intein Splicing Activity. [Related pubchem assays (depositor defined):AID2097, AID2223, AID489010, AID492950]; format: functional
T7 sequence (P9WHJ3 whole entry): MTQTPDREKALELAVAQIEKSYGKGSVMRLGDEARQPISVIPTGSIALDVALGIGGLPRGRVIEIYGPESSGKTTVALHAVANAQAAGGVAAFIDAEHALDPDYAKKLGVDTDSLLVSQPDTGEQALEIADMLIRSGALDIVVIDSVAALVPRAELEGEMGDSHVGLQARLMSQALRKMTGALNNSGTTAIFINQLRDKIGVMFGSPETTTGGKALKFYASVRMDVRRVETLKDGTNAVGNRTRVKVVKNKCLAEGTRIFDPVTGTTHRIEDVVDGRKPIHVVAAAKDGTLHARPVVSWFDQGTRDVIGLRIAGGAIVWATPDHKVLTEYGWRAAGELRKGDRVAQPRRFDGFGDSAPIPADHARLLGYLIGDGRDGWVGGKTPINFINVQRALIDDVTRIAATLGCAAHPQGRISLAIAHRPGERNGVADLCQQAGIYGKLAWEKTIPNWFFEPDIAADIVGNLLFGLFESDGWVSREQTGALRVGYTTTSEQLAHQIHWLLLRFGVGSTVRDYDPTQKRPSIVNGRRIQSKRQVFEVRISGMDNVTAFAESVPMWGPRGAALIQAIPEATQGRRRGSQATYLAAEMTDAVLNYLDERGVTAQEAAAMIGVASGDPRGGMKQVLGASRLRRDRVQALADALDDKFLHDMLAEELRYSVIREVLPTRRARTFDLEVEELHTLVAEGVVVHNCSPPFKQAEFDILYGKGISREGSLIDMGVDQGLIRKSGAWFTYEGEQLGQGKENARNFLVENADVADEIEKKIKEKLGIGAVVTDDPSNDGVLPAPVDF

[6] = target: T8, Replicative DNA helicase DnaB (Mycobacterium tuberculosis, UniProt P9WMR3); assay: DnaB intein splicing inhibitors, dose response, biochemical, cell-free fluorescence (AID 449749); format: functional
T8 sequence (P9WMR3 whole entry): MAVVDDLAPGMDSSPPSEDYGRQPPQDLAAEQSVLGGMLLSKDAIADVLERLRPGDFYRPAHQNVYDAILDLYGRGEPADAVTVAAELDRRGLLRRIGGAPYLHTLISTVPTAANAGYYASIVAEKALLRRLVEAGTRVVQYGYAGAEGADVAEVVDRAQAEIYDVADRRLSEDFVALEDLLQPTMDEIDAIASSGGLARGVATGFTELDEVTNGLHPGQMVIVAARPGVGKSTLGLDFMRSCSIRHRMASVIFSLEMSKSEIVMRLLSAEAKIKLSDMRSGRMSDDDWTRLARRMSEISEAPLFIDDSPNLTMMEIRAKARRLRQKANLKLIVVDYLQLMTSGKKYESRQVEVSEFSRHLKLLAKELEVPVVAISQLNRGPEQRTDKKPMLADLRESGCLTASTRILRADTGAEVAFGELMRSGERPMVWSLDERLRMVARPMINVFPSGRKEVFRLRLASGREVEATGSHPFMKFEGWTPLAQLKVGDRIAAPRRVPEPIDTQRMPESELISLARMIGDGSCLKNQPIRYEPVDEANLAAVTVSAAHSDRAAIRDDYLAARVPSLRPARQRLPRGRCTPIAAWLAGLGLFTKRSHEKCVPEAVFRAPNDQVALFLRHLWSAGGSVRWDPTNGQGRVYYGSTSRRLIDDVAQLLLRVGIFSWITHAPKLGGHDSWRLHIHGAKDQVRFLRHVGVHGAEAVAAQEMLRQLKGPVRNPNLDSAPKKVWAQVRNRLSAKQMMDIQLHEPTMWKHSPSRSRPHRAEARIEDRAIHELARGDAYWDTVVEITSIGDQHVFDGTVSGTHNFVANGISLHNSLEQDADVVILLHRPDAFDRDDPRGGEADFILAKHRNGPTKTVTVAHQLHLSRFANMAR

BJ [7] = assay: cytotoxicity toward BJ-TERT-LT-ST fibroblasts, dose response, cell-based, RAS-independent, luminescence (AID 1935); format: functional; conditions: Homo sapiens;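 also: BJ fibroblasts immortalized with TERT plus LT and ST oncogenes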
[8] = cytotoxicity toward DRD oncogenic fibroblasts, dose response, cell-based, non-viral oncogenic, luminescence (AID 1934); format: functional; conditions: Homo sapiens
BJ [9] = assay: cells; format: functional, cell-based; conditions: Homo sapiens
BJ [10] = assay: cytotoxicity toward BJ-TERT fibroblasts, dose response, cell-based, RAS-independent, luminescence (AID 1933); format: functional; conditions: Homo sapiens
[11] = target: Induced myeloid leukemia cell differentiation protein Mcl-1 (Homo sapiens, UniProt Q07820); format: functional
Genome polyprotein = Genome polyprotein (dengue virus type 2, UniProt P29990); assay: Dengue-2 NS5 methyltransferase inhibitors, primary screen, biochemical, confirmation dose response (AID 588689); format: functional
[12] = target: T9, Polyadenylate-binding protein 1 (Homo sapiens, UniProt P11940); assay: PABP1 MLLE–PAM2 interaction inhibitors, dose response, miRNA deadenylation inhibitor project, biochemical, fluorescence polarization, Cy5-PAM2 peptide, secondary (AID 602260); format: functional; conditions: read-out: IC50_Mean
[13] = target: T9, Polyadenylate-binding protein 1; assay: PABP1 MLLE–PAM2 binding inhibitor potency, dose response, biochemical, fluorescence polarization, FITC-PAM2 peptide (AID 602259); format: functional; conditions: read-out: IC50_Mean

Chain of Large T antigen (P03070 whole entry): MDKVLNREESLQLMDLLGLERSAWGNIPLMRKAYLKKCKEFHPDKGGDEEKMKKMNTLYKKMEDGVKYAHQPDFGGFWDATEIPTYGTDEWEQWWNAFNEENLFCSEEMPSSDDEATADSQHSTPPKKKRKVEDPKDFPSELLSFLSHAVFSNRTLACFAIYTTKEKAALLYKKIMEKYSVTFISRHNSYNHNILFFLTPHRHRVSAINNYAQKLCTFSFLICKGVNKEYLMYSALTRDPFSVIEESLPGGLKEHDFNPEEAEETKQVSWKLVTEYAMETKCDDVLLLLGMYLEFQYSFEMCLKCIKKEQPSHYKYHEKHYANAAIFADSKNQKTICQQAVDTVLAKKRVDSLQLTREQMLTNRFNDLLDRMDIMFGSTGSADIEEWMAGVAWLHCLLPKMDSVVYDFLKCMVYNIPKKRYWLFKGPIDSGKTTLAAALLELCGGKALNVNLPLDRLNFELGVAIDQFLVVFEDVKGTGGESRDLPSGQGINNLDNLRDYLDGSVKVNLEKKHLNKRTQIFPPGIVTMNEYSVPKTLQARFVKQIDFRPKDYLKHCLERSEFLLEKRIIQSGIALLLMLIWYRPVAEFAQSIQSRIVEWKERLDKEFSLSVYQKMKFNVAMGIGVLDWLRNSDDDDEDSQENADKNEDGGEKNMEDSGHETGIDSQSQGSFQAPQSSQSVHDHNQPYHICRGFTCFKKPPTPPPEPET
Chain of Genome polyprotein (P29990 2492-3391 limits assumed): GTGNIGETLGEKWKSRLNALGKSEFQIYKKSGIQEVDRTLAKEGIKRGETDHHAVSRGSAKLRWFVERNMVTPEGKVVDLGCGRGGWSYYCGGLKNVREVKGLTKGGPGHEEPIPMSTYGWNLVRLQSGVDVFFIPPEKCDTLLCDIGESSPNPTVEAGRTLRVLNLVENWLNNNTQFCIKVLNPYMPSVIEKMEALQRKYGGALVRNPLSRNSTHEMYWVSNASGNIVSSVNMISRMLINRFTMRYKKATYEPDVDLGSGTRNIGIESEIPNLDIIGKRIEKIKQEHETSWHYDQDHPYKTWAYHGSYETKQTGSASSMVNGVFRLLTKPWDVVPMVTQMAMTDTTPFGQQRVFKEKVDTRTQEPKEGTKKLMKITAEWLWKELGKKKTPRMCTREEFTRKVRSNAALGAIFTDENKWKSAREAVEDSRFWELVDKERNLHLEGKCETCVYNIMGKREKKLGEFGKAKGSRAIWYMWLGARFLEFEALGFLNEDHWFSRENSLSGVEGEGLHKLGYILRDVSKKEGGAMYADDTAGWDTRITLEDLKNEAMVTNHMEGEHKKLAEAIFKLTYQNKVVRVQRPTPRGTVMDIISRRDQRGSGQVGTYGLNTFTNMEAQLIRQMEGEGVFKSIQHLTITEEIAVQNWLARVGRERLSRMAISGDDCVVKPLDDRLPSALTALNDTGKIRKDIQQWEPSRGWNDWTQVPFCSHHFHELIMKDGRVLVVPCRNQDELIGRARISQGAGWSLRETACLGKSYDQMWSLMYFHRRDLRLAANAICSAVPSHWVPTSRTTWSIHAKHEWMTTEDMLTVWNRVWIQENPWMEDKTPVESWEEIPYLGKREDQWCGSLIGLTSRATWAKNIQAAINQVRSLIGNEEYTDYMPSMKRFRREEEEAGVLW
T9 sequence (P11940 whole entry): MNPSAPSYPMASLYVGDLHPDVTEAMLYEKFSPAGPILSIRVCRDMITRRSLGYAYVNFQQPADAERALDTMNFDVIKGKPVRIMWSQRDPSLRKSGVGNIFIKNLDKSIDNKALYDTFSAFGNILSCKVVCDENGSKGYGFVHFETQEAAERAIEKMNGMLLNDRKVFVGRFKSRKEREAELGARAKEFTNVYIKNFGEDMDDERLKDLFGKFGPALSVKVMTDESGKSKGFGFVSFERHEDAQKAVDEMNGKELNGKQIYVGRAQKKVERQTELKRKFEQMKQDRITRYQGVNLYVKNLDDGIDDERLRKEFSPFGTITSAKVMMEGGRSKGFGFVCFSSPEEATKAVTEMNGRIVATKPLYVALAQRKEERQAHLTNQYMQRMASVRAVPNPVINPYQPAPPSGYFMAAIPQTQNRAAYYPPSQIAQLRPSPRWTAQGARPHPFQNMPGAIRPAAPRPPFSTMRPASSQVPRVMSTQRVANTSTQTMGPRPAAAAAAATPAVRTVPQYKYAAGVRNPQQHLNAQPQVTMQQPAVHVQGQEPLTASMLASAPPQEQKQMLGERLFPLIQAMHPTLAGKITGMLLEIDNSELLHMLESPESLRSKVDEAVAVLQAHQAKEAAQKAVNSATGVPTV
Chain of Induced myeloid leukemia cell differentiation protein Mcl-1 (Q07820 whole entry): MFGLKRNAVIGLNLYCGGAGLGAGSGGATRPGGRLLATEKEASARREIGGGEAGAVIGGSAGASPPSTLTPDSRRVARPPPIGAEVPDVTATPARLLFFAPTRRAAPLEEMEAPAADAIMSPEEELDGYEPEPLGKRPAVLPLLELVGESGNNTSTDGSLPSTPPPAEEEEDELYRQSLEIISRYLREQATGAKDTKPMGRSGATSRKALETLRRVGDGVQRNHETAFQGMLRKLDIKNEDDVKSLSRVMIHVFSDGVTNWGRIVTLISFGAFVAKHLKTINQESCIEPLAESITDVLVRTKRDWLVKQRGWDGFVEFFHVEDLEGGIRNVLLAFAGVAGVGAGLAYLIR

SMILES: COc1ccccc1NC(=O)CSc1sc2c(O)cc(=O)[nH]c2c1C#N
- IC50 [1]: 6.42 µM (active)

SMILES: Nc1ccc2[nH]c(CCCO)nc2c1
- EC50 [2]: 4.35 µM (inconclusive)
- EC50 [3]: 36.7 µM (active)
- IC50 (Large T antigen): 21.2 µM (active)
- AC50 [4]: 8.48 µM (active)

SMILES: O=C(O)CCN1C(=O)CC(N2C(=O)/C(=C/c3ccc(Cl)cc3)SC2=S)C1=O (stereo unspecified)
- IC50 (Leucine aminopeptidase): 22.5 µM (active)

SMILES: Cc1c(Nc2nc3ccccc3nc2NS(=O)(=O)c2cccc(Cl)c2)c(=O)n(-c2ccccc2)n1C
- IC50 (Leucine aminopeptidase): 21.3 µM (active)

SMILES: CCC(C)[C@H](N)c1cn([C@@H](Cc2cc3ccccc3[nH]2)C(=O)N2CCNCC2)nn1 (stereo partly specified)
- IC50 [5]: > 20 µM (inactive)
- AC50 [4]: 8.23 µM (active)

SMILES: COc1cc(/C=C2\C(=N)N3N=C(S(C)(=O)=O)SC3=NC2=O)ccc1OS(=O)(=O)c1ccc(C)cc1
- IC50 [1]: 3.81 µM (active)
- IC50 (Large T antigen): 64.6 µM (active)

SMILES: Cc1ccc(-c2[nH]nc3c2C(c2cccnc2)C(C#N)=C(N)O3)cc1 (stereo unspecified)
- IC50 (Leucine aminopeptidase): 25.8 µM (active)
- EC50 (Protein RecA): 1.3 µM (active)
- AC50 [6]: 5.17 µM (active)

SMILES: CCOc1ccccc1CNS(=O)(=O)c1ccc(-c2cnc(C3CC3)o2)cc1
- EC50 (BJ [7]): 0.703 µM (inconclusive)
- EC50 [8]: 19.7 µM (inconclusive)
- EC50 (BJ [9]): 46.3 µM (active)
- EC50 (BJ [10]): 0.535 µM (inconclusive)

SMILES: O=C(OCC(=O)N1CCCC1)c1ccccc1OCc1ccccc1
- IC50 (Leucine aminopeptidase): 4.38 µM (active)

SMILES: CC[C@H](C)NC(=O)c1ccc(Cn2c(=S)[nH]c3c([nH]c4ccc(OC)cc43)c2=O)cc1
- IC50 [1]: 4.67 µM (active)
- IC50 [11]: 5.25 µM (active)

SMILES: COc1ccc(N2C(=O)NC(=O)/C(=C\c3ccccc3[N+](=O)[O-])C2=O)cc1
- IC50 (Genome polyprotein): 32 µM (active)

SMILES: CN(C)c1ccc(C=C2C(=O)NC(=S)NC2=O)cc1[N+](=O)[O-]
- IC50 [12]: > 66 µM (inactive)
- IC50 (Leucine aminopeptidase): 76.6 µM (active)
- IC50 (Genome polyprotein): 12.8 µM (active)
- IC50 [13]: > 66 µM (inactive)
- IC50 (Large T antigen): 73.7 µM (active)

SMILES: O=C(Cn1c(=O)oc2cc(S(=O)(=O)N3CCCCCC3)ccc21)NC1CCCCCCC1
- IC50 [1]: 9.64 µM (active)

SMILES: CCc1ccc(N2C(=O)C(Cl)=C(N3CCOCC3)C2=O)cc1
- IC50 (Genome polyprotein): 45.1 µM (active)
- EC50 (Protein RecA): 0.34 µM (active)
- AC50 [6]: 6.99 µM (active)
